One may read the IC50 as the concentration at which inhibition is half-maximal.

Bounds are passed on as bounds.

The test concerns the target T1, aurora-A (human) (Homo sapiens, UniProt O14965).
T1 construct: purchased Upstate, Dundee, UK
T1 sequence (O14965 1-403): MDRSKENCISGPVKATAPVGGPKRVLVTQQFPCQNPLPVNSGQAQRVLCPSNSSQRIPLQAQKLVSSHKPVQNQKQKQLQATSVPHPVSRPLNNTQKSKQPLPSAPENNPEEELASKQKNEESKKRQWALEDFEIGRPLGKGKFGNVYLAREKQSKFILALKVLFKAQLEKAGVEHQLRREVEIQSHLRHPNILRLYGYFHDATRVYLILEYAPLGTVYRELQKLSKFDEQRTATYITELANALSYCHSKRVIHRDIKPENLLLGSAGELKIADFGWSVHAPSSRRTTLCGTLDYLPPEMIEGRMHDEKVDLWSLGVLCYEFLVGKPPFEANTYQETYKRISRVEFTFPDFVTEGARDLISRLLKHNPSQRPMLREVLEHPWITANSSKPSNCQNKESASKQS
Description: Aurora-A (human) kinase assay. The note with it: read-out: Activity (Aurora A activity, IC50 grading). It counts as biochemical. The procedure, abridged:
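Radiometric assay measuring [γ-32P] transfer from 100 μM ATP to 500 μM Kemptide by 2-5 ng active human aurora-A, pH 7.5 buffer, 30 min at 30° C. Incorporated label captured on P81 filters and counted by scintillation; IC50 from curve fitting.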
On to `CNc1ccc(Nc2nccc(-c3c(C)c4n(c3C)CCNC4=O)n2)cc1OC` [Example I-76, 7-[2-(3-Methoxy-4-methylamino-phenylamino)-pyrimidin-4-yl]-6,8-dimethyl-3,4-dihydro-2H-pyrrolo[1,2-a]pyrazin-1-one], for which the IC50 is under 1000 nM.
As to `Cc1c(-c2ccnc(Nc3ccc(C#N)cc3)n2)c(C)n2c1C(=O)NCC2` [Example I-77, 4-[4-(6,8-Dimethyl-1-oxo-1,2,3,4-tetrahydro-pyrrolo[1,2-a]pyrazin-7-yl)-pyrimidin-2-ylamino]-benzonitrile], the IC50 was under 1000 nM.
The same measure for `Cc1c(-c2ccnc(Nc3ccc(-c4cccnc4)cc3)n2)c(C)n2c1C(=O)NCC2` [Example I-78, 6,8-Dimethyl-7-[2-(4-pyridin-3-yl-phenylamino)-pyrimidin-4-yl]-3,4-dihydro-2H-pyrrolo[1,2-a]pyrazin-1-one]: under 1000 nM; for `Cc1c(-c2ccnc(Nc3ccc(-c4nncn4C)cc3)n2)c(C)n2c1C(=O)NCC2` [Example I-79, 6,8-Dimethyl-7-{2-[4-(4-methyl-4H-[1,2,4]triazol-3-yl)-phenylamino]-pyrimidin-4-yl}-3,4-dihydro-2H-pyrrolo[1,2-a]pyrazin-1-one]: under 1000 nM; for `Cc1cc(C)n(-c2ccc(Nc3nccc(-c4c(C)c5n(c4C)CCNC5=O)n3)cc2)n1` [Example I-80, 7-{2-[4-(3,5-Dimethyl-pyrazol-1-yl)-phenylamino]-pyrimidin-4-yl}-6,8-dimethyl-3,4-dihydro-2H-pyrrolo[1,2-a]pyrazin-1-one]: under 1000 nM.
The same measure for `CCOC(=O)c1cnn(-c2ccc(Nc3nccc(-c4c(C)c5n(c4C)CCNC5=O)n3)cc2)c1C` [Example I-81, 1-{4-[4-(6,8-Dimethyl-1-oxo-1,2,3,4-tetrahydro-pyrrolo[1,2-a]pyrazin-7-yl)-pyrimidin-2-ylamino]-phenyl}-5-methyl-1H-pyrazole-4-carboxylic acid ethyl ester]: under 1000 nM; for `Cc1c(-c2ccnc(Nc3ccc(-c4ccno4)cc3)n2)c(C)n2c1C(=O)NCC2` [Example I-82, 7-[2-(4-Isoxazol-5-yl-phenylamino)-pyrimidin-4-yl]-6,8-dimethyl-3,4-dihydro-2H-pyrrolo[1,2-a]pyrazin-1-one]: under 100 nM.
To `Cc1c(-c2ccnc(Nc3ccc(-c4csc(CC(N)=O)n4)cc3)n2)c(C)n2c1C(=O)NCC2` [Example I-83, 2-(4-{4-[4-(6,8-Dimethyl-1-oxo-1,2,3,4-tetrahydro-pyrrolo[1,2-a]pyrazin-7-yl)-pyrimidin-2-ylamino]-phenyl}-thiazol-2-yl)-acetamide] belongs under 1000 nM; to `Cc1c(-c2ccnc(Nc3ccc(-c4csc(CC#N)n4)cc3)n2)c(C)n2c1C(=O)NCC2` [Example I-84], under 1000 nM.
Regarding `COc1ccc(Nc2nccc(-c3c(C)c4n(c3C)CCNC4=O)n2)c(OC)c1` [Example I-85, 7-[2-(2,4-Dimethoxy-phenylamino)-pyrimidin-4-yl]-6,8-dimethyl-3,4-dihydro-2H-pyrrolo[1,2-a]pyrazin-1-one], the IC50 was under 10000 nM.
The same measure for `Cc1c(-c2ccnc(Nc3ccc(F)cc3Cl)n2)c(C)n2c1C(=O)NCC2` [Example I-86, 7-[2-(2-Chloro-4-fluoro-phenylamino)-pyrimidin-4-yl]-6,8-dimethyl-3,4-dihydro-2H-pyrrolo[1,2-a]pyrazin-1-one]: under 10000 nM; for `COc1ccc(Cl)cc1Nc1nccc(-c2c(C)c3n(c2C)CCNC3=O)n1` [Example I-87, 7-[2-(5-Chloro-2-methoxy-phenylamino)-pyrimidin-4-yl]-6,8-dimethyl-3,4-dihydro-2H-pyrrolo[1,2-a]pyrazin-1-one]: under 10000 nM.
The same measure for `Cc1ccc(F)cc1Nc1nccc(-c2c(C)c3n(c2C)CCNC3=O)n1` [Example I-88, 7-[2-(5-Fluoro-2-methyl-phenylamino)-pyrimidin-4-yl]-6,8-dimethyl-3,4-dihydro-2H-pyrrolo[1,2-a]pyrazin-1-one]: under 10000 nM.
Take `Cc1ccc(Oc2ccc(Nc3nccc(-c4c(C)c5n(c4C)CCNC5=O)n3)cc2)cc1` [Example I-89, 6,8-Dimethyl-7-[2-(4-p-tolyloxy-phenylamino)-pyrimidin-4-yl]-3,4-dihydro-2H-pyrrolo[1,2-a]pyrazin-1-one]: the IC50 is under 10000 nM.
For the compound `CCN(CC)CCNS(=O)(=O)c1ccc(Nc2nccc(-c3c(C)c4n(c3C)CCNC4=O)n2)cc1C` [Example I-90, N-(2-Diethylamino-ethyl)-4-[4-(6,8-dimethyl-1-oxo-1,2,3,4-tetrahydro-pyrrolo[1,2-a]pyrazin-7-yl)-pyrimidin-2-ylamino]-2-methyl-benzenesulfonamide], the IC50 was under 10000 nM.
As to `Cc1cc(Nc2nccc(-c3c(C)c4n(c3C)CCNC4=O)n2)ccc1S(=O)(=O)N(C)CCCN(C)C` [Example I-91, N-(3-Dimethylamino-propyl)-4-[4-(6,8-dimethyl-1-oxo-1,2,3,4-tetrahydro-pyrrolo[1,2-a]pyrazin-7-yl)-pyrimidin-2-ylamino]-2,N-dimethyl-benzenesulfonamide], the half-maximal inhibitory concentration (IC50) is under 10000 nM.
Turning to `CCOC(=O)c1c(C)nn(-c2ccc(Nc3nccc(-c4c(C)c5n(c4C)CCNC5=O)n3)cc2)c1C` [Example I-92, 1-{4-[4-(6,8-Dimethyl-1-oxo-1,2,3,4-tetrahydro-pyrrolo[1,2-a]pyrazin-7-yl)-pyrimidin-2-ylamino]-phenyl}-3,5-dimethyl-1H-pyrazole-4-carboxylic acid ethyl ester], the IC50 is under 10000 nM.
The same measure for `Cc1nccc(-c2cccc(Nc3nccc(-c4c(C)c5n(c4C)CCN(C)C5=O)n3)c2)n1` [Example I-93, 2,6,8-Trimethyl-7-{2-[3-(2-methyl-pyrimidin-4-yl)-phenylamino]-pyrimidin-4-yl}-3,4-dihydro-2H-pyrrolo[1,2-a]pyrazin-1-one]: under 100 nM.
With `Cc1c(-c2ccnc(Nc3ccc4c(c3)CS(=O)(=O)C4)n2)c(C)n2c1C(=O)N(C)CC2` [Example I-94, 7-[2-(2,2-Dioxo-2,3-dihydro-1H-2-benzo[c]thiophen-5-ylamino)-pyrimidin-4-yl]-2,6,8-trimethyl-3,4-dihydro-2H-pyrrolo[1,2-a]pyrazin-1-one], the IC50 is under 100 nM.
To `CCN1CCn2c(C)c(-c3ccnc(Nc4cccc(-c5ccnc(C)n5)c4)n3)c(C)c2C1=O` [Example I-95, 2-Ethyl-6,8-dimethyl-7-{2-[3-(2-methyl-pyrimidin-4-yl)-phenylamino]-pyrimidin-4-yl}-3,4-dihydro-2H-pyrrolo[1,2-a]pyrazin-1-one] belongs under 1000 nM.
Consider `Cc1c(-c2ccnc(Nc3cccc(S(=O)(=O)N4CCCCC4)c3)n2)c(C)n2c1C(=O)NCC2` [Example I-95c, 6,8-Dimethyl-7-{2-[3-(piperidine-1-sulfonyl)-phenylamino]-pyrimidin-4-yl}-3,4-dihydro-2H-pyrrolo[1,2-a]pyrazin-1-one], for which the IC50 is under 10000 nM.
`COCCNC(=O)Cc1ccc(Nc2nccc(-c3c(C)c4n(c3C)CCNC4=O)n2)cc1` [Example I-96, 2-{4-[4-(6,8-Dimethyl-1-oxo-1,2,3,4-tetrahydro-pyrrolo[1,2-a]pyrazin-7-yl)-pyrimidin-2-ylamino]-phenyl}-N-(2-methoxy-ethyl)-acetamide]: the IC50 was under 100 nM.
With `Cc1c(-c2ccnc(Nc3ccc(CC(=O)N(C)CCN(C)C)cc3)n2)c(C)n2c1C(=O)NCC2` [Example I-97, N-(2-Dimethylamino-ethyl)-2-{4-[4-(6,8-dimethyl-1-oxo-1,2,3,4-tetrahydro-pyrrolo[1,2-a]pyrazin-7-yl)-pyrimidin-2-ylamino]-phenyl}-N-methyl-acetamide], the half-maximal inhibitory concentration (IC50) was under 1000 nM.
To `Cc1c(-c2ccnc(Nc3ccc(CC(=O)N(C)CCCN(C)C)cc3)n2)c(C)n2c1C(=O)NCC2` [Example I-98, N-(3-Dimethylamino-propyl)-2-{4-[4-(6,8-dimethyl-1-oxo-1,2,3,4-tetrahydro-pyrrolo[1,2-a]pyrazin-7-yl)-pyrimidin-2-ylamino]-phenyl}-N-methyl-acetamide] belongs under 1000 nM; to `Cc1c(-c2ccnc(Nc3ccc(CC(=O)N4CCOCC4)cc3)n2)c(C)n2c1C(=O)NCC2` [Example I-99, 6,8-Dimethyl-7-{2-[4-(2-morpholin-4-yl-2-oxo-ethyl)-phenylamino]-pyrimidin-4-yl}-3,4-dihydro-2H-pyrrolo[1,2-a]pyrazin-1-one], under 1000 nM.
To `CC(=O)N1CCN(C(=O)Cc2ccc(Nc3nccc(-c4c(C)c5n(c4C)CCNC5=O)n3)cc2)CC1` [Example I-100, 7-(2-{4-[2-(4-Acetyl-piperazin-1-yl)-2-oxo-ethyl]-phenylamino}-pyrimidin-4-yl)-6,8-dimethyl-3,4-dihydro-2H-pyrrolo[1,2-a]pyrazin-1-one] belongs under 1000 nM; to `Cc1c(-c2ccnc(Nc3ccc(CC(=O)N4CCN(C)CC4)cc3)n2)c(C)n2c1C(=O)NCC2` [Example I-101, 6,8-Dimethyl-7-(2-{4-[2-(4-methyl-piperazin-1-yl)-2-oxo-ethyl]-phenylamino}-pyrimidin-4-yl)-3,4-dihydro-2H-pyrrolo[1,2-a]pyrazin-1-one], under 100 nM; to `Cc1c(-c2ccnc(Nc3ccc(CC(N)=O)cc3)n2)c(C)n2c1C(=O)NCC2` [Example I-102, 2-{4-[4-(6,8-Dimethyl-1-oxo-1,2,3,4-tetrahydro-pyrrolo[1,2-a]pyrazin-7-yl)-pyrimidin-2-ylamino]-phenyl}-acetamide], under 100 nM.

The values above are taken from US8404692B2, “Pyrimidin-4-yl-3, 4-dihydro-2H-pyrrolo [1,2A] pyrazin-1-one compounds” (Cyclacel Limited, priority 2005, dated 2013).
